Measured values published in patent publication US20260285850A1, “SUBSTITUTED OXAZOLIDINONES AND IMIDAZOLINONES AS HERBICIDES” (FMC CORPORATION, priority 2023, published 2026).

Tests used:
Assay type in all cases: in vivo
[1] = system: blackgrass (Alopecurus myosuroides); assay: Test A postemergence application, visual injury rating 0-100
In short: (§1)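 Visual injury ratings (0, no effect; 100, complete control) were assigned relative to untreated plants 10 days after treatment. Test chemicals, formulated with a surfactant-containing non-phytotoxic solvent, were applied in loam-sand soil either as a directed soil spray before emergence or to emerged plants, and plants were kept in a greenhouse.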

[2] = system: oat, wild (wild oat, Avena fatua); assay: as above
In short: as §1

[3] = system: ryegrass, Italian (italian ryegrass, Lolium multiflorum); assay: as above
In short: as §1

[4] = system: barnyardgrass (Echinochloa crus-galli); assay: as above
In short: as §1

kochia (Bassia scoparia) [5] = assay: as above
In short: as §1

[6] = system: green foxtail (Setaria viridis); assay: as above
In short: as §1

[7] = system: palmer (palmer amaranth, palmer pigweed, Amaranthus palmeri); assay: as above
In short: as §1

[8] = system: galium (catchweed bedstraw, Galium aparine); assay: as above; settings: Postemergence, 16 g ai/ha, greenhouse 10 days; 0 no effect, 100 complete control
In short: as §1

[9] = system: wheat (Triticum aestivum); assay: as above
In short: as §1

[10] = system: ragweed (common ragweed, Ambrosia artemisiifolia); assay: as above
In short: as §1

[11] = system: horseweed (Erigeron canadensis); assay: as above
In short: as §1

corn (Zea mays) [12] = assay: as above
In short: as §1

soybean (Glycine max) [13] = assay: as above
In short: as §1

[14] = system: barnyardgrass (Echinochloa crusgalli); assay: Test B flooded paddy test, visual plant response rating 0-100; settings: 250 g ai/ha, Flood, applied to paddy water, evaluated after 13 days
In short: (§2)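 Plants were grown to the 2-leaf stage, then pots were flooded to 3 cm above the soil and compound was applied directly to the paddy water, with that depth kept throughout.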

[15] = system: ducksalad (Heteranthera limosa); assay: as above; settings: 250 g ai/ha, Flood, applied to paddy water, evaluated after 13 days
In short: as §2

rice (Oryza sativa) = assay: as above; settings: 250 g ai/ha, Flood, applied to paddy water, evaluated after 13 days
In short: as §2

[16] = system: sedge, umbrella (small-flower umbrella sedge, Cyperus difformis); assay: as above; settings: 250 g ai/ha, Flood, applied to paddy water, evaluated after 13 days
In short: as §2

[17] = system: blackgrass (Alopecurus myosuroides); assay: Test A preemergence soil spray, visual injury rating 0-100; settings: 10 days
In short: as §1

[18] = system: oat, wild (wild oat, Avena fatua); assay: as above; settings: 10 days
In short: as §1

[19] = system: ryegrass, Italian (italian ryegrass, Lolium multiflorum); assay: as above; settings: 10 days
In short: as §1

[20] = system: barnyardgrass (Echinochloa crus-galli); assay: as above; settings: 10 days
In short: as §1

kochia (Bassia scoparia) [21] = assay: as above; settings: 10 days
In short: as §1

[22] = system: green foxtail (Setaria viridis); assay: as above; settings: 10 days
In short: as §1

[23] = system: palmer (palmer amaranth, palmer pigweed, Amaranthus palmeri); assay: as above; settings: 10 days
In short: as §1

[24] = system: wheat (Triticum aestivum); assay: as above; settings: 10 days
In short: as §1

[25] = system: ragweed (common ragweed, Ambrosia artemisiifolia); assay: as above; settings: 10 days
In short: as §1

corn (Zea mays) [26] = assay: as above; settings: 10 days
In short: as §1

soybean (Glycine max) [27] = assay: as above; settings: 10 days
In short: as §1

[28] = 62 g ai/ha, postemergence, 10 days, 0 = no effect, 100 = complete control
[29] = Postemergence, 16 g ai/ha, greenhouse 10 days, 0 no effect, 100 complete control
[30] = 62 g ai/ha, 0 = no effect, 100 = complete control

For `CC1(C(=O)NC2CC=C(C(=O)OCC(F)F)C2)CN(c2cc(F)cc(F)c2)C(=O)O1` (stereo not drawn) [Compound 152], the “Blackgrass plant response rating (0-100)” value [1, 28] was 100, the “Blackgrass plant response rating (0 to 100 scale)” value [1, 29] was 70 and the “Oat, Wild plant response rating (0-100)” value [2, 28] was 90. The “Oat, Wild plant response rating (0 to 100 scale)” value [2, 29] was 80, the “Ryegrass, Italian plant response rating (0-100)” value [3, 28] was 80 and the “Ryegrass, Italian plant response rating (0 to 100 scale)” value [3, 29] was 70. The “Barnyardgrass plant response rating (0-100)” value [4, 28] was 100, the “Barnyardgrass plant response rating (0 to 100 scale)” value [4, 29] was 100 and the “Kochia plant response rating (0-100)” value (kochia (Bassia scoparia) [5]; [28]) was 90. The “Kochia plant response rating (0 to 100 scale)” value (kochia (Bassia scoparia) [5]; [29]) was 90, the “Foxtail, Green plant response rating (0-100)” value [6, 28] was 90 and the “Foxtail, Green plant response rating (0 to 100 scale)” value [6, 29] was 90. For the same compound, the “Pigweed, Palmer plant response rating (0-100)” value [7, 28] was 90, the “Pigweed, Palmer plant response rating (0 to 100 scale)” value [7, 29] was 60 and the “Galium plant response rating (0 to 100 scale)” value [8] was 70. For the same compound, the “Wheat plant response rating (0-100)” value [9, 28] was 90, the “Wheat plant response rating (0 to 100 scale)” value [9, 29] was 80 and the “Ragweed plant response rating (0-100)” value [10, 28] was 50. The “Ragweed plant response rating (0 to 100 scale)” value [10, 29] was 20, the “Horseweed plant response rating (0-100)” value [11, 28] was 70 and the “Horseweed plant response rating (0 to 100 scale)” value [11, 29] was 30. For the same compound, the “Corn plant response rating (0-100)” value (corn (Zea mays) [12]; [28]) was 100, the “Corn plant response rating (0 to 100 scale)” value (corn (Zea mays) [12]; [29]) was 100 and the “Soybean plant response rating (0-100)” value (soybean (Glycine max) [13]; [28]) was 80. The “Soybean plant response rating (0 to 100 scale)” value (soybean (Glycine max) [13]; [29]) was 60, the “Plant response rating, Barnyardgrass (0 to 100 scale, 0 is no effect and 100 is complete control)” value [14] was 90 and the “Plant response rating, Ducksalad (0 to 100 scale, 0 is no effect and 100 is complete control)” value [15] was 80. The “Plant response rating, Rice (0 to 100 scale, 0 is no effect and 100 is complete control)” value (rice (Oryza sativa)) was 85, the “Plant response rating, Sedge, Umbrella (0 to 100 scale, 0 is no effect and 100 is complete control)” value [16] was 90 and the “Blackgrass plant response rating” value ([17]; 16 g ai/ha, 0 to 100 scale) was 0. The “Blackgrass plant response rating (0-100)” value [17, 30] was 0, the “Oat, Wild plant response rating” value ([18]; 16 g ai/ha, 0 to 100 scale) was 0 and the “Oat, Wild plant response rating (0-100)” value [18, 30] was 70. For the same compound, the “Ryegrass, Italian plant response rating” value ([19]; 16 g ai/ha, 0 to 100 scale) was 70, the “Ryegrass, Italian plant response rating (0-100)” value [19, 30] was 90 and the “Barnyardgrass plant response rating” value ([20]; 16 g ai/ha, 0 to 100 scale) was 30. The “Barnyardgrass plant response rating (0-100)” value [20, 30] was 100, the “Kochia plant response rating” value (kochia (Bassia scoparia) [21]; 16 g ai/ha, 0 to 100 scale) was 90 and the “Kochia plant response rating (0-100)” value (kochia (Bassia scoparia) [21]; [30]) was 90. For the same compound, the “Foxtail, Green plant response rating” value ([22]; 16 g ai/ha, 0 to 100 scale) was 30, the “Foxtail, Green plant response rating (0-100)” value [22, 30] was 100 and the “Pigweed, Palmer plant response rating” value ([23]; 16 g ai/ha, 0 to 100 scale) was 0. The “Pigweed, Palmer plant response rating (0-100)” value [23, 30] was 90, the “Wheat plant response rating” value ([24]; 16 g ai/ha, 0 to 100 scale) was 70 and the “Wheat plant response rating (0-100)” value [24, 30] was 90. For the same compound, the “Ragweed plant response rating” value ([25]; 16 g ai/ha, 0 to 100 scale) was 0, the “Ragweed plant response rating (0-100)” value [25, 30] was 30 and the “Corn plant response rating” value (corn (Zea mays) [26]; 16 g ai/ha, 0 to 100 scale) was 10. The “Corn plant response rating (0-100)” value (corn (Zea mays) [26]; [30]) was 60, the “Soybean plant response rating” value (soybean (Glycine max) [27]; 16 g ai/ha, 0 to 100 scale) was 0 and the “Soybean plant response rating (0-100)” value (soybean (Glycine max) [27]; [30]) was 60.
